The values below are quoted from earlier work in US6909006B1, “Cyclopropylindole derivatives” (priority 1999, dated 2005).

SMILES strings stand for the structures.

In the data set the test system is tumour cells growing in vitro.

Regarding `COc1c(O)c2c(c3cc(C(=O)N4CCc5c4c(O)c(OC)c4[nH]c(C(=O)N6CC7CC78C6=CC(=O)c6[nH]cc(C)c68)cc54)[nH]c13)CCN2C(N)=O` (stereo not shown) [CC-1065], the “IC50s in tumour cells growing in vitro” value is given as “low pM range”.
